Experimental data as given in the NIST ThermoML archive (doi:10.1016/j.jct.2015.08.033).

Assay: mn = molality of the nth substance listed, in mol/kg
Conditions: 100 kPa, Liquid; for speed of sound: Frequency=3 MHz, Sing-around technique in a fixed-path interferometer; for mass density: Vibrating tube method

O=S(=O)([O-])C(F)(F)F.O=S(=O)([O-])C(F)(F)F.[Ca+2] [calcium trifluoromethanesulfonate] + CC(=O)N(C)C
Conditions | mass density, 298.15 K [kg/m3] | mass density, 303.15 K [kg/m3] | mass density, 308.15 K [kg/m3] | mass density, 313.15 K [kg/m3] | mass density, 318.15 K [kg/m3] | speed of sound, 298.15 K [m/s] | speed of sound, 303.15 K [m/s] | speed of sound, 308.15 K [m/s] | speed of sound, 313.15 K [m/s] | speed of sound, 318.15 K [m/s]
m1 = 0.02187 | 940.927 | 936.332 | 931.736 | 927.121 | 922.5 | 1457 | 1437.3 | 1417.6 | 1398 | 1378.6
m1 = 0.03271 | 943.201 | 938.61 | 934.019 | 929.41 | 924.794 | 1457.4 | 1437.8 | 1418.2 | 1398.7 | 1379.3
m1 = 0.04637 | 946.038 | 941.451 | 936.856 | 932.246 | 927.636 | 1458 | 1438.5 | 1419 | 1399.4 | 1380
m1 = 0.06551 | 949.951 | 945.373 | 940.788 | 936.196 | 931.596 | 1458.5 | 1439 | 1419.5 | 1400.2 | 1380.9
m1 = 0.08271 | 953.447 | 948.878 | 944.3 | 939.716 | 935.124 | 1459 | 1439.6 | 1420.2 | 1400.9 | 1381.7
m1 = 0.1052 | 957.976 | 953.415 | 948.847 | 944.27 | 939.688 | 1459.6 | 1440.3 | 1421 | 1401.8 | 1382.7
m1 = 0.1305 | 963.026 | 958.471 | 953.91 | 949.342 | 944.771 | 1460.3 | 1441 | 1421.8 | 1402.7 | 1383.7
m1 = 0.1577 | 968.401 | 963.856 | 959.304 | 954.745 | 950.183 | 1460.9 | 1441.8 | 1422.7 | 1403.7 | 1384.8
m1 = 0.1977 | 976.212 | 971.679 | 967.14 | 962.594 | 958.045 | 1461.8 | 1442.8 | 1423.9 | 1405 | 1386.2

[Ba+2].[O-][Cl+3]([O-])([O-])[O-].[O-][Cl+3]([O-])([O-])[O-] [barium perchlorate] + CN(C)C=O
Conditions | mass density, 298.15 K [kg/m3] | mass density, 303.15 K [kg/m3] | mass density, 308.15 K [kg/m3] | mass density, 313.15 K [kg/m3] | mass density, 318.15 K [kg/m3] | speed of sound, 298.15 K [m/s] | speed of sound, 303.15 K [m/s] | speed of sound, 308.15 K [m/s] | speed of sound, 313.15 K [m/s] | speed of sound, 318.15 K [m/s]
m1 = 0.01339 | 947.432 | 942.667 | 937.889 | 933.096 | 928.287 | 1458.1 | 1438.9 | 1419.6 | 1400.4 | 1381.3
m1 = 0.02254 | 949.821 | 945.058 | 940.281 | 935.489 | 930.686 | 1458.7 | 1439.5 | 1420.2 | 1401.1 | 1381.9
m1 = 0.0331 | 952.562 | 947.81 | 943.03 | 938.243 | 933.442 | 1459.5 | 1440.2 | 1420.9 | 1401.8 | 1382.7
m1 = 0.04712 | 956.179 | 951.422 | 946.652 | 941.866 | 937.07 | 1459.9 | 1440.9 | 1421.7 | 1402.7 | 1383.7
m1 = 0.06582 | 960.992 | 956.235 | 951.468 | 946.686 | 941.893 | 1460.9 | 1441.9 | 1422.8 | 1403.8 | 1384.9
m1 = 0.08395 | 965.617 | 960.865 | 956.099 | 951.321 | 946.53 | 1461.8 | 1442.8 | 1423.8 | 1405 | 1386.1
m1 = 0.1061 | 971.226 | 966.477 | 961.715 | 956.94 | 952.153 | 1462.8 | 1444 | 1425.1 | 1406.3 | 1387.5
m1 = 0.1322 | 977.835 | 973.089 | 968.33 | 963.559 | 958.776 | 1464.1 | 1445.4 | 1426.6 | 1407.8 | 1389.2
m1 = 0.1588 | 984.508 | 979.766 | 975.008 | 970.24 | 965.461 | 1465.4 | 1446.8 | 1428 | 1409.4 | 1390.8
m1 = 0.1995 | 994.63 | 989.888 | 985.134 | 980.371 | 975.596 | 1467.4 | 1448.9 | 1430.3 | 1411.8 | 1393.3

O=S(=O)([O-])C(F)(F)F.O=S(=O)([O-])C(F)(F)F.[Mg+2] [magnesium triflate] + CC(=O)N(C)C
Conditions | mass density, 298.15 K [kg/m3] | mass density, 303.15 K [kg/m3] | mass density, 308.15 K [kg/m3] | mass density, 313.15 K [kg/m3] | mass density, 318.15 K [kg/m3] | speed of sound, 298.15 K [m/s] | speed of sound, 303.15 K [m/s] | speed of sound, 308.15 K [m/s] | speed of sound, 313.15 K [m/s] | speed of sound, 318.15 K [m/s]
m1 = 0.009142 | 938.272 | 933.667 | 929.056 | 924.433 | 919.8 | 1456.4 | 1436.7 | 1416.9 | 1397.2 | 1377.7
m1 = 0.01469 | 939.459 | 934.86 | 930.249 | 925.632 | 921.007 | 1456.7 | 1436.9 | 1417.2 | 1397.6 | 1378.1
m1 = 0.02251 | 941.134 | 936.55 | 931.947 | 927.333 | 922.714 | 1457 | 1437.3 | 1417.7 | 1398.1 | 1378.6
m1 = 0.03194 | 943.119 | 938.53 | 933.932 | 929.324 | 924.71 | 1457.4 | 1437.8 | 1418.2 | 1398.6 | 1379.2
m1 = 0.04489 | 945.817 | 941.246 | 936.655 | 932.054 | 927.445 | 1457.9 | 1438.3 | 1418.8 | 1399.3 | 1379.9
m1 = 0.05714 | 948.308 | 943.72 | 939.134 | 934.538 | 929.945 | 1458.3 | 1438.8 | 1419.3 | 1399.9 | 1380.6
m1 = 0.07138 | 951.266 | 946.705 | 942.126 | 937.537 | 932.941 | 1458.9 | 1439.4 | 1419.9 | 1400.6 | 1381.3
m1 = 0.08889 | 954.777 | 950.211 | 945.637 | 941.054 | 936.462 | 1459.5 | 1440.1 | 1420.7 | 1401 | 1382.1
m1 = 0.1071 | 958.463 | 953.905 | 949.338 | 944.772 | 940.1 | 1460 | 1440.7 | 1421.3 | 1401.9 | 1382.8
m1 = 0.1341 | 963.77 | 959.1 | 954.5 | 950 | 945.4 | 1460.7 | 1441.5 | 1422.3 | 1403.2 | 1384.2
